Molecular target: T1, Nav 1.7 (Homo sapiens, UniProt Q15858)
T1 construct: expressed in transfected cells
Experiment: Whole-cell voltage clamp electrophysiology, automated patch clamp (marker c in Table of Examples)
Type: cell-based
Conditions: marker c = Automated patch clamp data; read-out: Nav 1.7 activity
How it was run: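 A voltage protocol weighted toward inactivated-state block was used to test compounds on stably expressing cells, with pulses from −65 mV holding to −10 mV test and −100 mV. Currents came from whole-cell automated patch-clamp recordings, either IonWorks Quattro or other automated instruments, usually in perforated-patch mode.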

T1 sequence (Q15858 whole entry): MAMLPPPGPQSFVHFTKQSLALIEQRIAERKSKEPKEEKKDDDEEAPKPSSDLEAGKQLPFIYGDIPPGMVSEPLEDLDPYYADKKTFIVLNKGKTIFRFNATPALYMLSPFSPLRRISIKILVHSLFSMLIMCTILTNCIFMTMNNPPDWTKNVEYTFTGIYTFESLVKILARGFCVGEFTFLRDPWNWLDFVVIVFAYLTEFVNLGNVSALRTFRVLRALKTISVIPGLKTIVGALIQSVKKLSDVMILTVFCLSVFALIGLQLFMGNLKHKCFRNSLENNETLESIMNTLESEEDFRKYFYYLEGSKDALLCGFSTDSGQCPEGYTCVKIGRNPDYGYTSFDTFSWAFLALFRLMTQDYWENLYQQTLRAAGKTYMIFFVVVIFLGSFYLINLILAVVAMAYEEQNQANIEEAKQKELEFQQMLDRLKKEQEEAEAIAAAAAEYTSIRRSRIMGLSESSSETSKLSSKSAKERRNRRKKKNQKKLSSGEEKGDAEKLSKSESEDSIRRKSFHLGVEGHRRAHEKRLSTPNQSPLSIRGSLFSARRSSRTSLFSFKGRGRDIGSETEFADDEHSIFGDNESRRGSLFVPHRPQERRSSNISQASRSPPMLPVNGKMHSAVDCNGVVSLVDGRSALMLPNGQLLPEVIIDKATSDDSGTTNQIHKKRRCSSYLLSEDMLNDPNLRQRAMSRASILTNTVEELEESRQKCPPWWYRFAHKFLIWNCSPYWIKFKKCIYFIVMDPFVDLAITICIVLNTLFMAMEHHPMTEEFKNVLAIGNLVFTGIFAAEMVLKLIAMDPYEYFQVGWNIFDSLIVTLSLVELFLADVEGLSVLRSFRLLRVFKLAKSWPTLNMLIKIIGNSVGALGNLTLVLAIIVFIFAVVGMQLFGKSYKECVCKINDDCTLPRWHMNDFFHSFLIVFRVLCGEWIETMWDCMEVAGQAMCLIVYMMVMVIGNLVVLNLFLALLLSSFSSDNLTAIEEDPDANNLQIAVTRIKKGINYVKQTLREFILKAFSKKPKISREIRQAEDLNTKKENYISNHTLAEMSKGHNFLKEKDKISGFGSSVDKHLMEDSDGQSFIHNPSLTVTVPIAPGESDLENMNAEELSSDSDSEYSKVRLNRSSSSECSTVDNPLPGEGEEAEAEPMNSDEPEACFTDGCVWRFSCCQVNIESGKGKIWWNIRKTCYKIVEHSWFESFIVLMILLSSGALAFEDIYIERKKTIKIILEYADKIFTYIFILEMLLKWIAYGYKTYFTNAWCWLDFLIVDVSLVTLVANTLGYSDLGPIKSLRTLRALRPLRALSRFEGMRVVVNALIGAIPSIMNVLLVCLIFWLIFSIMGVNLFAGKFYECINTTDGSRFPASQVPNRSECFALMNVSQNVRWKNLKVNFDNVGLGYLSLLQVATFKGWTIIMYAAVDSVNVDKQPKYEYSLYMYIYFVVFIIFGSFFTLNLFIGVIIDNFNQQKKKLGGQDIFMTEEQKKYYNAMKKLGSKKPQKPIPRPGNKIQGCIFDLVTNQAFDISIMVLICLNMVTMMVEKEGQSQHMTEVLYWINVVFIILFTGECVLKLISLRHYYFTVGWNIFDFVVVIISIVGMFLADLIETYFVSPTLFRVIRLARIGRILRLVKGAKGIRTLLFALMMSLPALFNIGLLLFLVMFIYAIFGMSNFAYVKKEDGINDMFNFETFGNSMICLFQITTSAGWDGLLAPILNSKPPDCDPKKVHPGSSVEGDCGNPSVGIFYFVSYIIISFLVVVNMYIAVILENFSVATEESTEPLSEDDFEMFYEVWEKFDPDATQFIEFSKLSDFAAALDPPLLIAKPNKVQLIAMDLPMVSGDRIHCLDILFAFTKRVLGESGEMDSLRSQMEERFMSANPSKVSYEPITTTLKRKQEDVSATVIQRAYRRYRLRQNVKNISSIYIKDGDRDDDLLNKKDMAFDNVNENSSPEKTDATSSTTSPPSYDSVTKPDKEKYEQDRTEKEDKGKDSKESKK

SMILES | IC50
CN(c1ccccc1)c1nc(N)nc(-c2noc(C3CN(C(=O)OC(C)(C)C)C3)n2)n1 [Example 382, tert-butyl 3-(3-{4-amino-6-[methyl(phenyl]amino]-1,3,5-triazin-2-yl}-1,2,4-oxadiazol-5-yl)azetidine-1-carboxylate] | 4810 nM
CN(c1ccccc1)c1nc(N)nc(-c2noc(C3CN(Cc4ccccc4)C3)n2)n1 [Example 383, 6-[5-(1-benzylazetidin-3-yl)-1,2,4-oxadiazol-3-yl]-2-N-methyl-2-N-phenyl-1,3,5-triazine-2,4-diamine] | 1540 nM
CC(=O)N1CC(c2nc(-c3nc(N)nc(N(C)c4ccccc4)n3)no2)C1 [Example 384, 1-[3-(3-{4-Amino-6-[methyl(phenyl)amino]-1,3,5-triazin-2-yl}-1,2,4-oxadiazol-5-yl)azetidin-1-yl]ethan-1-one] | > 8590 nM
CN(c1ccccc1)c1nc(N)nc(-c2noc(C3CN(CCC(F)(F)F)C3)n2)n1 [Example 385, 2-N-methyl-2-N-phenyl-6-{5-[1-(3,3,3-trifluoropropyl)azetidin-3-yl]-1,2,4-oxadiazol-3-yl}-1,3,5-triazine-2,4-diamine] | 2210 nM
CN(c1ccccc1)c1nc(N)nc(-c2noc([C@H]3[C@@H]4C(=O)N(Cc5ccccc5)C(=O)[C@@H]43)n2)n1 [Example 386, (1R,5S,6S)-6-(3-{4-Amino-6-[methyl(phenyl)amino]-1,3,5-triazin-2-yl}-1,2,4-oxadiazol-5-yl)-3-benzyl-3-azabicyclo[3.1.0]hexane-2,4-dione] | > 9980 nM
CN(c1ccccc1)c1nc(N)nc(-c2noc(N3C[C@@H]4[C@@H](COCC(F)(F)F)[C@@H]4C3)n2)n1 [Example 387, 2-N-methyl-2-N-phenyl-6-{5-[6-[(2,2,2-trifluoroethoxy)methyl]-3-azabicyclo[3.1.0]hexan-3-yl]-1,2,4-oxadiazol-3-yl}-1,3,5-triazine-2,4-diamine] | 1420 nM
CN(c1ccccc1)c1nc(N)nc(-c2noc(N3CCN(S(=O)(=O)N(C)C)CC3)n2)n1 [Example 388, 4-(3-{4-amino-6-[methyl(phenyl)amino]-1,3,5-triazin-2-yl}-1,2,4-oxadiazol-5-yl)-N,N-dimethylpiperazine-1-sulfonamide] | 2810 nM
CN(c1ccccc1)c1nc(N)nc(-c2noc(N3CCN(S(=O)(=O)CC(F)(F)F)CC3)n2)n1 [Example 389, 2-N-methyl-2-N-phenyl-6-(5-{4-[(2,2,2-trifluoroethane)sulfonyl]piperazin-1-yl}-1,2,4-oxadiazol-3-yl)-1,3,5-triazine-2,4-diamine] | 5990 nM
Nc1nc(Nc2ccccc2)nc(-c2noc(N3C[C@@H]4[C@@H](COCC(F)(F)F)[C@@H]4C3)n2)n1 [Example 390, 2-N-phenyl-6-{5-[6-[(2,2,2-trifluoroethoxy)methyl]-3-azabicyclo[3.1.0]hexan-3-yl]-1,2,4-oxadiazol-3-yl}-1,3,5-triazine-2,4-diamine] | 702 nM
CN(c1ccccc1)c1nc(N)nc(-c2noc(N3CC4C(COc5ccccc5)C4C3)n2)n1 (stereo not drawn) [Example 391, 2-N-methyl-6-{5-[6-(phenoxymethyl)-3-azabicyclo[3.1.0]hexan-3-yl]-1,2,4-oxadiazol-3-yl}-2-N-phenyl-1,3,5-triazine-2,4-diamine] | 539 nM
Nc1nc(Nc2ccccc2)nc(-c2noc(N3CC4C(COc5ccccc5)C4C3)n2)n1 (stereo not drawn) [Example 392, 6-{5-[6-(phenoxymethyl)-3-azabicyclo[3.1.0]hexan-3-yl]-1,2,4-oxadiazol-3-yl}-2-N-phenyl-1,3,5-triazine-2,4-diamine] | 433 nM
Nc1nc(Nc2ccccc2)nc(-c2noc(N3C[C@@H]4[C@@H](COCC5CC5)[C@@H]4C3)n2)n1 [Example 393, 6-{5-[6-[(cyclopropylmethoxy)methyl]-3-azabicyclo[3.1.0]hexan-3-yl]-1,2,4-oxadiazol-3-yl}-2-N-phenyl-1,3,5-triazine-2,4-diamine] | 884 nM
